In one assay the target is Cyclophilin B (Homo sapiens, UniProt P23284). Description: Cyclophilin binding, competitive ELISA. To be noted: human recombinant cyclophilin. From the text: Plates were washed as described above. […] Plates were washed as described above.
For orientation: An ELISA detects its analyte on a solid surface through an enzyme-linked reagent.

Assay [1] concerns IL-2 production by stimulated T Cells (Jurkat cells). Description: Inhibition of IL-2 production in stimulated Jurkat cells. In kind it is cell-based. To be noted: Homo sapiens, Jurkat, read-out: IL-2 inhibition IC50. The method, then: Compounds of formula (I) were tested for their inhibition of IL-2 production by stimulated T Cells, using Jurkat cells with anti-CD3 and anti-CD28 co-stimulation. […] Cyclosporine A (control) was also run at a 0.5-Log 9-point titration. starting at 500 ng/mL. All compounds to be tested were dissolved in dimethyl sulfoxide. Cytotoxicity was evaluated with parallel Alamar Blue plates. Jurkat cells were seeded at […] per well in 200 μL growth media in a 96-well plate. Cells were cultured in complete RPMI medium supplemented with 10% fetal bovine serum with one hour incubation at 37° C. with 5% carbon dioxide
PMA and PHA were diluted in complete media to a final concentration of 1 ng/mL and 5 μg/mL respectively. The diluted compounds were mixed 1:1 and 25 μL of the mixture was added per well. The plates were incubated overnight at 37° C. in 5% CO2.
The following day one hundred microliters of cell culture supernatant were transferred from each well to a non-sterile V-bottom plate and stored plate at −80° C. prior to analysis. Determination of IL-2 concentrations in the supernatant was performed using the Pierce Human IL-2 Colorimetric ELISA kit as per the manufacturer's directions (Pierce, #EH2IL25). Cell culture supernatants were diluted with an equal volume of complete RPMI (25 μL sample+25 μL RPMI per well) prior to testing in order to remain in linear range of the assay.
Duplicate wells containing cells in the absence of PMA/PHA and test drug (background) and duplicate wells containing cells stimulated with PMA/PHA in the absence of test drug (100% production of IL-2) were included as controls. Activated cells treated with DMSO were used to normalize IL-2 values. IL-2 standard curves were generated using a 4-parameter curve fit in SoftMax Pro software from Molecular Devices.
Two independent assays were performed to evaluate the effect of cyclosporine A and representative compounds on IL-2 production in PMA/PHA stimulated Jurkat cells (mean values were calculated).

The test system of assay [2] is HCV RNA replicon, Genotype 1b. As to the kind of experiment: HCV replicon assay, 1b replicon (LUC). To be noted: Hepatitis C virus, GETYPE1B, in Homo sapiens, 72 h, read-out: mean EC50, Genotype 1b. (A replicon is a self-replicating genome or part of one, used to study replication in cells.)
The next assay relates to Influenza B (B/Allen/45). Description: Anti-influenza virus cytoprotection assay in MDCK cells. In kind it is cell-based. The settings on record: read-out: levels of inhibition.
Assay [3] deals with Influenza A H1N1 (A/CA/05/09). The description is as above. In kind it is cell-based. The settings on record: read-out: levels of inhibition.
Assay [4] concerns Influenza A H3N2 (A/HK/8/68). The description is as above. In kind it is cell-based. The settings on record: read-out: levels of inhibition.

Values after ≈ are worked out from the molar mass of the structure shown. Numbered stars: 1 amine (or outer) side, 2 acyl side, 3 side chain; on linkers, the order of the positions; unused ones are H or OH. Square brackets hold non-standard residues; d marks the D form. Peptide text beside a SMILES is read from it. ξ: configuration not given here. X1 = CN(C)C1(CS[C@H](C(=O)[*:2])N(C)[*:1])CCC1; ξNMeBmt = C/C=C/C[C@@H](C)[C@@H](O)C(NC)C(=O)O; X2 = CC(C)[C@H](C(=O)[*:2])N(Cc1ccccc1)[*:1]; NMeL = CN[C@@H](CC(C)C)C(=O)O; dNMeL = CN[C@H](CC(C)C)C(=O)O; dNMeV = CN[C@@H](C(=O)O)C(C)C; dAbu = CC[C@@H](N)C(=O)O

Chain of Cyclophilin B (P23284 34-216): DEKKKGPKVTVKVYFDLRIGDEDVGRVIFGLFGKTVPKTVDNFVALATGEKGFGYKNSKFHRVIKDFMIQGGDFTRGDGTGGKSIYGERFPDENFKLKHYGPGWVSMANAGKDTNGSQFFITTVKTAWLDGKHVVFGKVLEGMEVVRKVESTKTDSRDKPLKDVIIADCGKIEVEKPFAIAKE

For `C/C=C/C[C@@H](C)[C@@H](O)C1C(=O)N[C@H](CC)C(=O)N(C)[C@H](SCC2(N(C)C)CCC2)C(=O)N(C)[C@@H](CC(C)C)C(=O)N(Cc2ccccc2)[C@H](C(C)C)C(=O)N(C)[C@H](CC(C)C)C(=O)N[C@H](C)C(=O)N[C@@H](C)C(=O)N(C)[C@H](CC(C)C)C(=O)N(C)[C@H](CC(C)C)C(=O)N(C)[C@H](C(C)C)C(=O)N1C` (stereo partly drawn) [Compound F] (cyclo(A[dNMeL][dNMeL][dNMeV][ξNMeBmt][dAbu][X1][NMeL][X2][dNMeL][dA])), the IC50 (usually the concentration that gives 50% inhibition) on Cyclophilin B turned out to be 43 nM; in assay [1], 0.452 µg/mL (≈ 0.315 µM). For the same compound, the concentration for a half-maximal effect (EC50) (usually the midpoint of the concentration-response curve) in assay [2] was 520 nM. Also, the figures for the inhibition at 10 µM (in the assay with Influenza B (B/Allen/45); in assay [3]; in assay [4]) were 15%, 98% and 68%, respectively.

The values are drawn from patent US20140212381A1, “MACROCYCLES” (Scynexis, Inc., priority 2012, published 2014).
